Measurements taken from ChEMBL document CHEMBL4396870, “Pharmacological Chaperones for the Treatment of α-Mannosidosis” (J Med Chem, 2019).
Positions count from the first letter of the chain named.

How the values were obtained:
[1] = system: T1, Lysosomal alpha-mannosidase (Homo sapiens), O00754 [R916C]; test: Chaperone activity at human Lysosomal alpha-mannosidase R916C mutant transfected in human […] knockout HAP1 cells assessed as enzyme activity enhancement at 0.2 uM incubated for 96 hrs relative to control
T1 sequence (whole entry): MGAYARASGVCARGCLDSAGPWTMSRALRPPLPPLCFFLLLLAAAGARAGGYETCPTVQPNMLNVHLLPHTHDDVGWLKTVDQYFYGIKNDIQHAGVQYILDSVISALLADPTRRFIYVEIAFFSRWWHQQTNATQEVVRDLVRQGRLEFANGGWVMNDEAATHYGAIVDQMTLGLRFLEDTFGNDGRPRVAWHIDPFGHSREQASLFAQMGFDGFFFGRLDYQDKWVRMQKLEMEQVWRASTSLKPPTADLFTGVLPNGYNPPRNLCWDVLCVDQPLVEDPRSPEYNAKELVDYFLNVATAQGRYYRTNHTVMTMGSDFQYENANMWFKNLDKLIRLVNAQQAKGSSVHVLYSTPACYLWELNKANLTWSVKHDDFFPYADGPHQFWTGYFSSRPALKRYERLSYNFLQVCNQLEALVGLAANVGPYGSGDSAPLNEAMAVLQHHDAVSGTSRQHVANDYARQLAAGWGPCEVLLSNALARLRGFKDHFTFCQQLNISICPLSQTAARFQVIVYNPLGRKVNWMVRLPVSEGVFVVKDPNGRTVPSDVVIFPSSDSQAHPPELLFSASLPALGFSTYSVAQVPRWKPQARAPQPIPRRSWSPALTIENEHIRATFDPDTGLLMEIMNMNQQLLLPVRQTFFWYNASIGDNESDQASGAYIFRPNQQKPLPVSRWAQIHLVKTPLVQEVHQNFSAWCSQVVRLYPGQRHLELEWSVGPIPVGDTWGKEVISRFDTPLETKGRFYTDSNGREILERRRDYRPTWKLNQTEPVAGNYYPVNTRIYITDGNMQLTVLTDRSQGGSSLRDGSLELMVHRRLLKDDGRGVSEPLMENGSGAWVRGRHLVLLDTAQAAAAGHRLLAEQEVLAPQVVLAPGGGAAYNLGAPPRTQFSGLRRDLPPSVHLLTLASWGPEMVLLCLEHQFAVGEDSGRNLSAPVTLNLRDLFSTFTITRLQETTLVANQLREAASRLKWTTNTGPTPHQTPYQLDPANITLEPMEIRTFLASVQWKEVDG

[2] = system: T2, Lysosomal alpha-mannosidase (Homo sapiens), O00754 [C55F]; test: Chaperone activity at human Lysosomal alpha-mannosidase C55F mutant transfected in human […] knockout HAP1 cells assessed as enzyme activity enhancement at 20 uM incubated for 96 hrs relative to control
T2 sequence (whole entry): T1 sequence (whole entry) with C55F, C916R

SMILES	Activity [1] [%]	Activity [2] [%]
COC[C@H]1O[C@@H]2O[C@H]3[C@H](OC)[C@@H](OC)[C@@H](O[C@H]4[C@H](OC)[C@@H](OC)[C@@H](O[C@H]5[C@H](OC)[C@@H](OC)[C@@H](O[C@H]6[C@H](OC)[C@@H](OC)[C@@H](O[C@H]7[C@H](OC)[C@@H](OC)[C@@H](O[C@H]8[C@H](OC)[C@@H](OC)[C@@H](O[C@H]1[C@H](OC)[C@H]2OC)O[C@@H]8COC)O[C@@H]7COC)O[C@@H]6COC)O[C@@H]5COCc1cn(CCCCCCN[C@@H]2[C@@H](O)[C@@H](O)[C@H](O)[C@H]5COC(=O)N52)nn1)O[C@@H]4COC)O[C@@H]3COC	45	16
CC(C)(C)OC(=O)NCCCCCCCCCN[C@@H]1[C@@H](O)[C@@H](O)[C@H](O)[C@H]2COC(=O)N21	8	111
